For 5 molecules, AC50, IC50 and EC50 results are on record in ChEMBL document CHEMBL1201862, “PubChem BioAssay data set” (2004).

Activity calls are given as the source filed them.

In test [1] the test system is A-375. Description: proliferation inhibition in MITF-low A375 cells – cell-based, cherry-pick samples, set 2, counter-screen for MITF modulator project, dose response (AID 540335). Conditions: Homo sapiens. Format: functional. A general note: The purpose of a counterscreen is to sort out artefacts and off-target activity.
Test [2] has as its system A-375. Put plainly: MITF: Counter assay: A375 proliferation Measured in Cell-Based System Using Plate Reader - 2084-03_Inhibitor_Dose_DryPowder_Activity. [Related pubchem assays (depositor defined):AID488944]. Format: functional. The note with it: Homo sapiens.
The target in test [3] is FAD-linked sulfhydryl oxidase ALR (Homo sapiens, UniProt P55789). Description: ALR-catalysed DTT oxidation blockers – biochemical, H2O2 detection, luminescence, cherry-pick, dose response (AID 493248).
FAD-linked sulfhydryl oxidase ALR, sequence (P55789 whole entry): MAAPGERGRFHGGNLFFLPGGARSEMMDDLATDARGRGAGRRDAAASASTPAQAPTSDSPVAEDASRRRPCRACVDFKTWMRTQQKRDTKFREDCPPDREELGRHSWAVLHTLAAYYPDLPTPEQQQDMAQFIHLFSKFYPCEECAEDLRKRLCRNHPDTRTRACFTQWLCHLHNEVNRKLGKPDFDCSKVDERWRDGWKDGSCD
In the next test the target is Large T antigen (Simian virus 40, UniProt P03070). Format: functional, Betapolyomavirus macacae.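 Note: Confirmatory-stage PubChem screen for compounds that inhibit SV40 T antigen.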
Large T antigen, sequence (P03070 whole entry): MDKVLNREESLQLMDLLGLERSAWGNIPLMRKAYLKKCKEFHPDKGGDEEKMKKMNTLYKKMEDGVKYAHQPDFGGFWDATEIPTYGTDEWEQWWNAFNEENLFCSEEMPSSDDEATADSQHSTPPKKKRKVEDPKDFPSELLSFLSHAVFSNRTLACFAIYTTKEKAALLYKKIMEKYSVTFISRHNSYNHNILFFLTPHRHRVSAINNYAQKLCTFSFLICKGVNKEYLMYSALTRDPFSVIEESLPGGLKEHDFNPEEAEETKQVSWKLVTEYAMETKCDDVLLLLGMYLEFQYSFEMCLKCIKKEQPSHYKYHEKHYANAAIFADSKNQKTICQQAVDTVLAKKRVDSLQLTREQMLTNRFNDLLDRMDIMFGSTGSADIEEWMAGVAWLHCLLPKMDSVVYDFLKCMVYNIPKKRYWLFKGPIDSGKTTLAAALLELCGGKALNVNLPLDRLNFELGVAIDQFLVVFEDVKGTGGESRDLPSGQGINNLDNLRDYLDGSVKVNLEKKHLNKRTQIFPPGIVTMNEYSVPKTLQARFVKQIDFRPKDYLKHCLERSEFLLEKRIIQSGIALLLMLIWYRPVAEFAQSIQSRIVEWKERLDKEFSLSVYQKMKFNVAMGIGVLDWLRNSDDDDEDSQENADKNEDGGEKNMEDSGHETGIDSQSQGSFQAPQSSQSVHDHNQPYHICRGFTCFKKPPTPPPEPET
Test [4] deals with T1, Microphthalmia-associated transcription factor (Homo sapiens, UniProt O75030).
T1 sequence (O75030 whole entry): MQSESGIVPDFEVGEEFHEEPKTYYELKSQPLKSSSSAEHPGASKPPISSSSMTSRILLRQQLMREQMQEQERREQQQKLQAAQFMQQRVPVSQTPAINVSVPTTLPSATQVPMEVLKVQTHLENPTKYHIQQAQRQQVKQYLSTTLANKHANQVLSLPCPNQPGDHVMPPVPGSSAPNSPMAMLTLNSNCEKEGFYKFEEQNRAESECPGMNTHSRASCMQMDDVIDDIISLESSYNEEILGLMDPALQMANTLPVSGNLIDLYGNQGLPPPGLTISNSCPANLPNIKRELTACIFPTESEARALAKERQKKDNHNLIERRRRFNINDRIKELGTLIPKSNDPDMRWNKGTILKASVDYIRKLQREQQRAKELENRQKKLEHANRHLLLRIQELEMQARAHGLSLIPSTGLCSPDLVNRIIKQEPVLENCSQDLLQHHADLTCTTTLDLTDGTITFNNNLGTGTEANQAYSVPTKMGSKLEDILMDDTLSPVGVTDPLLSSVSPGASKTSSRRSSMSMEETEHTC
Description: reducers of TRPM1 reporter luminescence, concentration series – cell-based, SK-MEL-5, cherry-picked, set 3, MITF inhibitor project, dose response (AID 493073).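 Note: SK-MEL-5 melanoma cells with luciferase driven by the MITF target TRPM1 promoter.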 Format: functional.

In test [5] the test system is Candida albicans. Description: Candida growth reduction in fluconazole presence – CaCi-2 strain, Alamar Blue, dry powder, set 2, antifungal resistance reversal project, dose response (AID 488930). Format: functional, organism-based. In general terms: Alamar Blue is a resazurin reagent that responds to reducing activity.
The nature of test [6]: Counterscreen for IDE inhibitors: Luminescence-based cell-based high throughput dose response assay to identify compounds that are cytotoxic to HEK cells. [Related pubchem assays: 434962 (Primary screen (IDE inhibitors in singlicate)), 449730 (Counterscreen (Cytotoxicity in triplicate)), 435028 (Confirmation (IDE inhibitors in triplicate)) …. Format: functional. Conditions: HEK293.

For test [7], the system named is Candida albicans. Put plainly: C. albicans growth inhibition with fluconazole – CaCi-2 strain, Alamar Blue, dry powder, set 4, dose response (AID 488943). Format: functional, organism-based.
Another test has as its target T2, Insulin-degrading enzyme (Homo sapiens, UniProt P14735).
T2 sequence (P14735 whole entry): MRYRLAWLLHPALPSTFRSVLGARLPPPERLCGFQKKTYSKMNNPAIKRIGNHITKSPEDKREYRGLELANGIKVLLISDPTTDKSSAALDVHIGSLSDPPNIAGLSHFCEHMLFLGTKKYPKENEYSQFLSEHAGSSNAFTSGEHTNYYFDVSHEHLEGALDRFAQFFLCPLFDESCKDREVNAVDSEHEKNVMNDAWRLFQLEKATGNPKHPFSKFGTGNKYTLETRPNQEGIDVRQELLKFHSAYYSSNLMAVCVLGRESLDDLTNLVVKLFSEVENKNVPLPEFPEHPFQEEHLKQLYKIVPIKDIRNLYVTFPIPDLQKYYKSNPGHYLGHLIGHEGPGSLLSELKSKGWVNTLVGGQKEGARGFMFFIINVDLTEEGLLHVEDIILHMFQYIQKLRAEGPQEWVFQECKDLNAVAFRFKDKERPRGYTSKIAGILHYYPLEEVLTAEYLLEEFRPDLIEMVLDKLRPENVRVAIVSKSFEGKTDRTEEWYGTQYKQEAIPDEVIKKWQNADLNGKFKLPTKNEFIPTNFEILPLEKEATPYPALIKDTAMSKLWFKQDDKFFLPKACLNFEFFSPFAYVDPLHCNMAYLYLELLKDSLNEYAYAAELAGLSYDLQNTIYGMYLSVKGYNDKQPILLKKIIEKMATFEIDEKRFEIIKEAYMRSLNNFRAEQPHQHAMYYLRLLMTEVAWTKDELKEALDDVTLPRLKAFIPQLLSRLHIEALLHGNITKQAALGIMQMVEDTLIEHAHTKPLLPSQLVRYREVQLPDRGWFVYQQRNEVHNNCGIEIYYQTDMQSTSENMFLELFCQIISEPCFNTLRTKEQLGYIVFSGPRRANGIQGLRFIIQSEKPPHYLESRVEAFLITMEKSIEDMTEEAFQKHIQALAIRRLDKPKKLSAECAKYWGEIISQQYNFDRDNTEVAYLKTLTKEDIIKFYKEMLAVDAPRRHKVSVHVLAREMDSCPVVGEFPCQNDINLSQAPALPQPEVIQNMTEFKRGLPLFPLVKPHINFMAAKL
Put plainly: Dose Response: Fluorescence polarization-based cell-based high throughput dose response assay for inhibitors of insulin-degrading enzyme (IDE). [Related pubchem assays: 434962 (Primary screen (IDE inhibitors in singlicate)), 449730 (Counterscreen (Cytotoxicity in triplicate)), 435028 (Confirmation (IDE inhibitors in triplicate)), 434984 (Summary …. Format: functional.

Test [8] concerns Candida albicans. Description: resistant Candida growth with fluconazole co-treatment – CaCi-8 strain, Alamar Blue, dry powder, set 2, dose response (AID 488909). Format: functional, organism-based.
Test [9] concerns Candida albicans. Description: fluconazole-resistant Candida strain growth inhibitors – CaCi-8 strain, dry powder, set 4, dose response (AID 488950). Format: functional, organism-based.
The target of test [10] is T3, Beta-2 adrenergic receptor (Homo sapiens, UniProt P07550). Description: Dose response for HTS for Beta-2AR agonists via FAP method from Powderset2. Format: functional.
T3 sequence (P07550 whole entry): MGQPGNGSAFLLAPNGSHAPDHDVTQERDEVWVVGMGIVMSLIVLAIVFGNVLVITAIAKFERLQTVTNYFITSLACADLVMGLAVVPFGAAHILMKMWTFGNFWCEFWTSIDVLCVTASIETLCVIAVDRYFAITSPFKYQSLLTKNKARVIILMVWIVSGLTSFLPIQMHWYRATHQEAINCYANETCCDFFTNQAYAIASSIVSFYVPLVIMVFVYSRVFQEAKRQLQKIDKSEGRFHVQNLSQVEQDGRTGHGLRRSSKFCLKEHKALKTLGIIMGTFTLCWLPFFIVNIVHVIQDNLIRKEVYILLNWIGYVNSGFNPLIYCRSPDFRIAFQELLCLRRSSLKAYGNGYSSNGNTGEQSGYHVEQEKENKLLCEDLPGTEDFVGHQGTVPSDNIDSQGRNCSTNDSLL
For test [11], the target named is T3, Beta-2 adrenergic receptor. Description: ADRB2 activation measured by internalization – cell-based, FAP fluorogen, flow cytometry, cherry pick 1, dose response (AID 588763). Format: functional. For orientation: A flow cytometer gives signals particle by particle.
Test [12] has as its system INS1. Description: INS-1E mitochondrial potential loss inhibitors – cell-based, JC-1 fluorescence, dry powder, set 2, dose response (AID 488867). Format: functional. The note with it: Rattus norvegicus.
Test [13] has as its system INS1. Put plainly: beta-cell survival under cytokine stress – INS-1E, ATP luminescence, dry powder, dose response (AID 488844). Format: functional, cell-based. The note with it: Rattus norvegicus.
The test system of test [14] is INS1. Description: INS-1E mitochondrial potential rescue under cytokines – cell-based, JC-1 fluorescence ratio, dry powder, dose response (AID 488931). Format: functional. The note with it: Rattus norvegicus.
The next test deals with Hexokinase-1 (Homo sapiens, UniProt P19367). Description: SAR analysis of small molecule inhibitors of hexokinase domain containing I (HKDC1) in the hexokinase 1 selectivity assay. [Related pubchem assays (depositor defined):AID493160, AID493190]. Format: functional.
Hexokinase-1, sequence (P19367 whole entry, the tested form may be a part): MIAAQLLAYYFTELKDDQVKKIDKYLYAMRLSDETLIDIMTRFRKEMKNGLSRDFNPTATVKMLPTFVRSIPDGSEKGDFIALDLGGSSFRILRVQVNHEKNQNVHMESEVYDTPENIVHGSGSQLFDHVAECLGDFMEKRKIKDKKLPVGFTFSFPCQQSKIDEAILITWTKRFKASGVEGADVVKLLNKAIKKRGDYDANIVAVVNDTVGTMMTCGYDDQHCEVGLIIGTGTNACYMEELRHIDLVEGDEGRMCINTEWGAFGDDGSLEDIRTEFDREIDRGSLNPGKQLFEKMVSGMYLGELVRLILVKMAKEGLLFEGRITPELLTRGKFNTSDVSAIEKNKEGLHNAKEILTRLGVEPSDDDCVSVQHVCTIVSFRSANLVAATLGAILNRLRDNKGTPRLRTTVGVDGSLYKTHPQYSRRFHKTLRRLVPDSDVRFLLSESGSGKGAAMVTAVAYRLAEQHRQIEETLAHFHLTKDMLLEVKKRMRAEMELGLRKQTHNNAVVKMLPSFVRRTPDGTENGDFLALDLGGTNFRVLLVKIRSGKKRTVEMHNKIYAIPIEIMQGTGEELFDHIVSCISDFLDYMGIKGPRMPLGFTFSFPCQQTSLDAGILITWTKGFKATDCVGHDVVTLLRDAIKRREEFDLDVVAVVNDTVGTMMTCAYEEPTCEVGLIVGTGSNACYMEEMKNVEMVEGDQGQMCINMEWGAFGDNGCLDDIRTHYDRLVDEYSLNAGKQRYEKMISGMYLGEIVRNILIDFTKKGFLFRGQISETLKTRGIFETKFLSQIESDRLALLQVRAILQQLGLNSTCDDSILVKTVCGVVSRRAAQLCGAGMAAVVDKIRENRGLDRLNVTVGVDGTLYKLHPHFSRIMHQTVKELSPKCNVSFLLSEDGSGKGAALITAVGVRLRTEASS
A further test addresses T4, Hexokinase HKDC1 (Homo sapiens, UniProt Q2TB90).
T4 sequence (Q2TB90 whole entry): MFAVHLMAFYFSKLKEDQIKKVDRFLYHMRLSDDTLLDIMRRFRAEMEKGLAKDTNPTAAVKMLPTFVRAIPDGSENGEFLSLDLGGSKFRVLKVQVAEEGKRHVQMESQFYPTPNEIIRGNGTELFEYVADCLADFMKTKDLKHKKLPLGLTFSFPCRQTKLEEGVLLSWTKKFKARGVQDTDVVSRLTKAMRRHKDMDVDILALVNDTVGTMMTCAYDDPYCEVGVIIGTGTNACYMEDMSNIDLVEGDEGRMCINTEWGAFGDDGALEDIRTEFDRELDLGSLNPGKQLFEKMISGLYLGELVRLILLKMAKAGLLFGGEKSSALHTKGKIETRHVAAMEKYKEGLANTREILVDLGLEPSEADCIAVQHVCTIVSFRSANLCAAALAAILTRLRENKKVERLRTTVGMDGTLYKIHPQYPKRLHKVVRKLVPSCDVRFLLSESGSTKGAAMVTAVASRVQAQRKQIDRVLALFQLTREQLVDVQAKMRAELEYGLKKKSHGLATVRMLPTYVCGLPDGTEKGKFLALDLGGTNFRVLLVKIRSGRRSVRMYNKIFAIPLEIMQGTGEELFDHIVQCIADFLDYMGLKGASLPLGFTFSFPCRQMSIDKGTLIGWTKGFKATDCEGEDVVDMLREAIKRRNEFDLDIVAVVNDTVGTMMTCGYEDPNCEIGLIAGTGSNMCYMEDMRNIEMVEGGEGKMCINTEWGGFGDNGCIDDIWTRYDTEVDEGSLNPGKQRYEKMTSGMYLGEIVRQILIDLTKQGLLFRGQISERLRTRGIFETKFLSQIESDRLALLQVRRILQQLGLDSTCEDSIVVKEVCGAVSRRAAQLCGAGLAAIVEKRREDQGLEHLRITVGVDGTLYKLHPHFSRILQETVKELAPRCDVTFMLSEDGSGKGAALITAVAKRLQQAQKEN
Put plainly: SAR analysis of small molecule inhibitors of hexokinase domain containing I (HKDC1). [Related pubchem assays (depositor defined):AID493160, AID493190]. Format: functional.

For `O=C1NC(=O)N(c2ccccc2)C(=O)/C1=C/C=C/c1ccco1`, the AC50 (as a rule, the midpoint of the concentration-response curve, whichever way the signal moves) is > 35 µM (active) with A-375 [1], > 35 µM (active) in the test with A-375 [2], 0.449 µM (active) in [3] and 8.29 µM (active) in [4]. The half-maximal inhibitory concentration (IC50) – broadly, the concentration needed to halve the response being measured – on Large T antigen is 26.5 µM (active).
With `O=C(C1CCC1)N1CCN(c2ccnc3cc(Cl)ccc23)CC1`, the AC50 with Candida albicans [5] is 1.5 µM (active); in the test with Candida albicans [7], 16.9 µM (active); in the test with Candida albicans [8], 0.58 µM (active); in the test with Candida albicans [9], 5 µM (active). Moreover, the IC50 in test [6] is 22.1 µM (not active); at Insulin-degrading enzyme, 31.6 µM (not active).
On to `CCOC(=O)c1ccc(NC(=O)Cn2nnc(-c3ccccc3)n2)cc1`, for which the results for the EC50 in test [10] and in test [11] were 1.31 µM (active) and 1.18 µM (active), respectively.
As for `C[C@@H]1CN([C@H](C)CO)C(=O)c2cccc(NC(=O)Nc3ccc(F)cc3)c2O[C@H]1CN(C)S(=O)(=O)c1ccc(Cl)cc1`, the AC50 in the test on INS1 [12] is 227 µM (active); in the test on INS1 [13], 48 µM (active); with INS1 [14] it was 62.1 µM (active).
Regarding `N#Cc1ccc(CSc2nnc(NC(=O)c3ccc4ccccc4n3)s2)cc1`, the IC50 at Hexokinase-1 and on Hexokinase HKDC1 was > 80 µM (inactive) each time.
